Measured values published in patent publication US20160326153A1, “N-SUBSTITUTED IMINO HETEROCYCLIC COMPOUNDS” (BASF SE, priority 2013, published 2016).

Columns and labels:
Format in all cases: in vivo
Aedes aegypti = experiment: whole plant or invertebrate; details: 48 h, larval mortality after 2 days, read-out: mortality in comparison with untreated controls
Protocol: B.11 Yellow Fever Mosquito (Aedes aegypti)
For evaluating control of yellow fever mosquito (Aedes aegypti) the test unit consisted of 96-well-microtiter plates containing 200 μl of tap water per well and 5-15 freshly hatched A. aegypti larvae.
The active compounds were formulated using a solution containing 75% (v/v) water and 25% (v/v) DMSO. Different concentrations of formulated compounds or mixtures were sprayed onto the insect diet at 2.5 μl, using a custom built micro atomizer, at two replications.
After application, microtiter plates were incubated at 28+1° C., 80+5% RH for 2 days. Larval mortality was then visually assessed.

Myzus persicae = experiment: Green peach aphid (Myzus persicae) through systemic means, artificial diet under membrane in microtiter plates; details: 72 h, read-out: mortality in comparison with untreated controls
Text: For evaluating control of green peach aphid (Myzus persicae) through systemic means the test unit consisted of 96-well-microtiter plates containing liquid artificial diet under an artificial membrane.
The compounds were formulated using a solution containing 75% v/v water and 25% v/v DMSO. Different concentrations of formulated compounds were pipetted into the aphid diet, using a custom built pipetter, at two replications.
After application, 5-8 adult aphids were placed on the artificial membrane inside the microtiter plate wells. The aphids were then allowed to suck on the treated aphid diet and incubated at about 23±1° C. and about 50±5% relative humidity for 3 days. Aphid mortality and fecundity was then visually assessed.

Megoura viciae = experiment: Vetch aphid (Megoura viciae) through contact or systemic means, broad bean leaf disks; details: foliar, 120 h, read-out: mortality in comparison with untreated controls
Protocol: B.10 Vetch Aphid (Megoura viciae)
For evaluating control of vetch aphid (Megoura viciae) through contact or systemic means the test unit consisted of 24-well-microtiter plates containing broad bean leaf disks.
The compounds were formulated using a solution containing 75% v/v water and 25% v/v DMSO. Different concentrations of formulated compounds were sprayed onto the leaf disks at 2.5 μl, using a custom built micro atomizer, at two replications.
After application, the leaf disks were air-dried and 5-8 adult aphids placed on the leaf disks inside the microtiter plate wells. The aphids were then allowed to suck on the treated leaf disks and incubated at about 23±1° C. and about 50±5% relative humidity for 5 days. Aphid mortality and fecundity was then visually assessed.

Nilaparvata lugens = experiment: Rice brown plant hopper (Nilaparvata lugens) on sprayed rice seedlings; details: 100 ppm; after 72 hours
Protocol: B.9 Rice Brown Plant Hopper (Nilaparvata lugens)
(§1) Rice seedlings were cleaned and washed 24 hours before spraying. The active compounds were formulated in 1:1 acetone:water (vol:vol) and 0.01% vol/vol surfactant (Kinetic HV) was added. Potted rice seedlings were sprayed with 5 ml test solution, air dried, covered with Mylar cages and inoculated with 10 adults. Treated rice plants were kept at about 28-29° C. and relative humidity of about 50-60%. Percent mortality was recorded after 72 hours.

Aphis craccivora = experiment: Cowpea aphid (Aphis craccivora) on sprayed cowpea plants; details: 72 h, read-out: mortality in comparison with untreated controls
Protocol: B.3 Cowpea Aphid (Aphis craccivora)
The active compound is dissolved at the desired concentration in a mixture of 1:1 (vol:vol) distilled water:acetone. Surfactant (Kinetic HV) is added at a rate of 0.01% (vol/vol). The test solution is prepared at the day of use.
Potted cowpea plants were colonized with approximately 50-100 aphids of various stages by manually transferring a leaf tissue cut from infested plant 24 hours before application. Plants were sprayed after the pest population has been recorded. Treated plants are maintained on light carts at about 28° C. Percent mortality was assessed after 72 hours.

Ceratitis capitata = experiment: Mediterranean fruitfly (Ceratitis capitata) control, microtiter plates with insect diet and eggs; details: 120 h, read-out: mortality in comparison with untreated controls
Protocol: B.5 Mediterranean Fruitfly (Ceratitis capitata)
For evaluating control of Mediterranean fruitfly (Ceratitis capitata) the test unit consisted of microtiter plates containing an insect diet and 50-80 C. capitata eggs.
The compounds were formulated using a solution containing 75% v/v water and 25% v/v DMSO. Different concentrations of formulated compounds were sprayed onto the insect diet at 5 μl, using a custom built micro atomizer, at two replications.
After application, microtiter plates were incubated at about 28±1° C. and about 80±5% relative humidity for 5 days. Egg and larval mortality was then visually assessed.

Nephotettix virescens = experiment: Rice green leafhopper (Nephotettix virescens) on sprayed rice seedlings; details: 72 h, read-out: mortality in comparison with untreated controls
Protocol: B.7 Rice Green Leafhopper (Nephotettix virescens)
as §1, with “acetone:water (vol:vol),” for “acetone:water (vol:vol)”, “with 5-6” for “with 5”, “Mylar cages” for “Mylar”

Structure (SMILES)	mortality at 2500 ppm (Aedes aegypti)	mortality at 2500 ppm (Myzus persicae)	mortality at 2500 ppm (Megoura viciae)	mortality in comparison with untreated controls (Nilaparvata lugens)	mortality at 500 ppm (Aphis craccivora)	mortality at 2500 ppm (Ceratitis capitata)	mortality at 500 ppm (Nephotettix virescens)
CO/N=C/C(=O)ON=c1ccccn1Cc1cnc(Cl)s1 (mixture of isomers) [IA.1-4, [(E/Z)-[1-[(2-chlorothiazol-5-yl)methyl]-2-pyridylidene]amino] (2E/Z)-2-methoxyimino-acetate]	≥ 75%	≥ 75%	≥ 75%				
O=C(NCC(F)(F)F)NN=c1ccccn1Cc1ccc(Cl)nc1 [IB.1-3]				at least 75%			
CNC(=O)NN=c1ccccn1Cc1ccc(Cl)nc1 (mixture of isomers) [IB.1-1, 1-[(E/Z)-[1-[(6-chloro-3-pyridyl)methyl]-2-pyridylidene]amino]-3-methyl-urea]	≥ 75%	≥ 75%	≥ 75%		≥ 75%	≥ 75%	≥ 75%
